Source: US20130217094A1, “ENZYME SOLUTION FOR SEPARATING CELL, METHOD FOR SEPARATING CELL AND METHOD FOR SEPARATING PANCREATIC ISLET” (BIO LINK, INCORPORATED, priority 2010, published 2013)

Tests used:
diabetes model SCID mice = experiment: Transplantation of pancreatic islets to diabetes model SCID mice; format: in vivo
Experimental: Note here that in the following Examples, rats at an age of 9 to 10 weeks were used as a donor of the pancreatic islets. Furthermore, as a recipient, SCID mice at an age of 9 to 10 weeks were used. Streptozocin (STZ; 250 mg/kg) was intraperitoneally administered to SCID mice under anesthesia of diethyl ether, and β cells were destroyed to induce diabetes. Mice whose casual blood glucose level exceeds 350 mg/dL for two continuous days were regarded as diabetes mice, and they were used as the recipients. […] For the screening of the diabetes model SCID mice, mice whose casual blood glucose level exceeds 350 mg/dL for two continuous days by collection of blood were employed. In transplantation, the mice were subjected to ether anesthesia, and pancreatic islet was infused into the renicapsule of the left kidney by using a 250 μL pipette tip. After transplantation, the blood was recovered every day for the first seven days, and the blood glucose level was measured, and thereafter, the blood glucose level was measured three times a week. Then, on Day 30 after transplantation, the pancreatic islet-transplanted kidney was extracted. Note here that the definition of cure of diabetes was a case in which the blood glucose level was less than 150 mg/dL for three continuous days and the blood glucose level after nephrectomy was increased to more than 250 mg/dL.

pancreatic islets [1] = experiment: Separation of pancreatic islets from rats with the enzyme solution: yield of pancreatic islets; format: cell-based; conditions: per rat, n=8; collagenase (2 mg/mL) Hanks' solution infused via pancreatic duct, 37° C. 32 minutes; DIDS 200 μM or NaCl substituted with sodium glutamate
Experimental: The rats were grouped into three groups (a control group, a DIDS group, a low Cl^− group) each including 8 rats, then abdominal section was carried out to each rat under ether anesthesia, the choledoch duct was clamped in the vicinity of the entrance of the duodenum, and cannula was inserted. Then, 12 mL of Hanks' solution (NaCl: […], KCl: 400 mg/mL, MgSG4: 48.8 mg/mL, MgCl2: 46.8 mg/mL, CaCl2: 140 mg/mL, KH2PO4: 60 mg/mL, Na HPO4: 47.9 mg/mL and glucose: 1000 mg/mL) containing collagenase (2 mg/mL) was infused into the pancreas via the pancreatic duct from the cannula. However, to the DIDS group, DIDS (200 μM) as a chloride ion channel inhibitor was further added, and to the low Cl^− group, sodium chloride in the Hanks' solution was substituted with sodium glutamate.
The pancreas that had been swollen by infusion of the solution was extracted, and incubated at 37° C. for 32 minutes. Thereafter, degraded tissue was placed into 50 mL conical tube, and the Hanks' solution at 4° C. was added so as to stop the enzyme reaction. The tube was gently shaken, and subjected to centrifugation at 320G for 10 to 15 seconds. […]
For the yield of the pancreatic islets, IEQ (islet equivalents; the number of pancreatic islets based on the diameter of 150 μm) as a unit is used. […] Note here that the number of pancreatic islets whose diameter was less than 50 μm was not counted.

pancreatic islets [2] = experiment: Evaluation of damages in pancreatic islets (AO/PI staining, viability); format: cell-based, rats; conditions: AO/PI fluorescence area, n=8 in each group; islets separated in Example 1
Description: The degree of damage of pancreatic islets can be evaluated based on whether or not a barrier function of the cell membrane can be maintained. Then, the pancreatic islets of each group separated in Example 1 (n=8 in each group) was stained with acridine orange (AO) and propidium iodide as fluorescent dye. Note here that AO is taken in cells even in living cells to emit green fluorescence, and PI is taken into cells by failure of the barrier function of the cell membrane and bound to DNA to emit red fluorescence. Specifically, AO (10 μM) and PI (15 μM) were dissolved in PBS to form a solution, the pancreatic islets were incubated in the resultant solution for 10 minutes, and then the pancreatic islets were observed under fluorescence microscope. Then, by using image analysis software (Image J free software), an area of the green fluorescence and an area of the red fluorescence were obtained, the rate (%) of the area of green fluorescence excluding the area of the red fluorescence was defined as the viability (%) of pancreatic islet.

pancreatic islets [3] = experiment: Secretion of insulin by glucose stimulation (ELISA); format: cell-based, rats; conditions: 60 minutes, islets 150 to 200 μm, n=10
Experimental: As a medium, RPMI1640 medium containing 3.3 mM glucose and 0.1% fetal bovine serum was used, and conditions were set at 37° C. and in 5% CO2/95% air condition. In measurement, the Transwell medium on which pancreatic islets were placed was subjected to RPMI1640 medium containing 3.3 mM glucose and 0.1% fetal bovine serum, and pre-cultured for 60 minutes. Note here that the culture was carried out at 37° C. and in 5% CO2/95% air conditions. Thereafter, the Transwell medium on which pancreatic islets were placed was moved to a new well containing the similar medium and stood still for 60 minutes (sample A). […] Thereafter, the media of the sample A and the sample B were recovered, and insulin contained in the medium was measured by using an insulin measurement kit (manufactured by Morinaga Biochemical Lab, Inc.) using the ELISA method. Then, the value obtained by dividing the insulin level of the sample B by the insulin level of the sample A was defined as an insulin secretion stimulation index.

## O=S(=O)([O-])c1cc(N=C=S)ccc1C=Cc1ccc(N=C=S)cc1S(=O)(=O)[O-].[Na+].[Na+] [DIDS, 4,4′-di(isothiocyano)stilbene-2,2′-disodium disulfonate]
Diabetes model SCID mice; 200 IEQ islets transplanted to renicapsule of left kidney, STZ diabetes SCID mice, n=5
  blood glucose level on Day 1 to 2 after the transplantation: 78.7 ± 52.7 mg/dL
Diabetes model SCID mice; 200 IEQ islets transplanted, n=5 in each group
  mice that came to have a normal blood glucose (<150 mg/dL): all of five mice
Pancreatic islets [1]
  yield of the pancreatic islets: 1969±244 IEQ
Pancreatic islets [2]
  viability of the pancreatic islets: 84.9±4.9%
Pancreatic islets [3]; 3.3 mM glucose
  insulin secretion sample A (3.3 mM glucose): 1.94 ± 0.44 μU
Pancreatic islets [3]; 20 mM glucose
  insulin secretion sample B (20 mM glucose): 19.0 ± 4.46 μU
